In patent US7271278B2, “Application of chromium-amino acid complexes in the treatment of diabetes and other diseases” (The University of Wyoming, priority 2005, dated 2007):

What was measured:
[1] = Deoxyribose degradation assay for generation of hydroxyl radicals; details: chromium picolinate 1.2 μM; Ferric-EDTA 100 μM; ascorbic acid and hydrogen peroxide 100 μM
Procedure: The potential of chromium compounds to generate hydroxyl radicals in vitro was assessed by the method reported previously (Halliwell et al. (1987) Anal. Biochem., 165:215-219). Briefly, a reaction mixture containing either chromium picolinate or Cr(pa)3, 2-deoxyribose (4 mM), ascorbic acid (100 μM) and hydrogen peroxide (100 μM) in potassium phosphate buffer (pH 7.4, 10 mM) was incubated at 37° C. for 30 minutes. An aliquot of the mixture was treated with 1% (w/v) thiobarbituric acid and 2.8% (w/v) trichloroacetic acid and heated at 90° C. for 10 minutes, rapidly cooled and the amount of chromogen formed in the sample was measured by its absorption at 532 nm. Ferric-EDTA (100 μM) was used as a positive control.

3T3-adipocytes = experiment: 2-deoxy-D-[3H] glucose uptake in 3T3-L1 adipocytes; type: cell-based, mouse; details: insulin 6 nM during differentiation
Procedure: The 3T3-L1-pre-adipocytes were obtained from the American Type Culture Collection and were propagated at 37° C. in DMEM with 10% newborn calf serum plus 50 U/ml penicillin and 50 μg/ml streptomycin in an incubator under a humidified atmosphere of 5% CO2/95% air. Induction of differentiation was done one day post-confluence. Cells were maintained in differentiation medium of the following composition: DMEM, 10% FBS, […] dexamethasone, 0.5 mM 1-isobutyl-3-methylxanthine (IBMX) and ITS for three days. At day 3, the dexamethasone and IBMX were removed with ITS remaining on the cells for an additional two days. Differentiation was allowed to continue in DMEM supplemented with 10% FBS, ITS and the adipocytes were used between day 9 and 14 post-induction. Prior to the cellular assays, cells were serum starved by overnight incubation in DMEM (containing 0.2% serum).
Glucose uptake activity was analyzed by measuring the uptake of 2-deoxy-D-[^3H] glucose as described previously (Sakoda et al. (1999) Diabetes, 48:1365-1371). Briefly, confluent 3T3-L1 adipocytes grown in 6-well plates were washed twice with serum-free DMEM and incubated with 2 ml of the same medium at 37° C. for 2 hours. The cells were washed 3 times with Krebs-Ringer-HEPES (KRH) buffer and incubated with 2 ml KRH buffer at 37° C. for 30 minutes. Insulin (6 nM) and/or Cr(pa)3 (0-25 μM) were then added to adipocytes accompanying the procedure of differentiation. Glucose uptake was initiated by the addition of 0.1 ml KRH buffer and 2-deoxy-D-[^3H] glucose (0.2 μCi/ml) and 5 mM glucose as final concentrations. Glucose uptake was terminated by washing the cells three times with cold PBS. The cells were lysed overnight with 1 ml 0.5M NaOH and 0.1% SDS (w/v). The radioactivity retained by the cell lysates was determined by a scintillation counter (Beckmann LC 6000IC) and normalized to protein amount measured with a Micro BCA Protein Assay Kit (Pierce Chemical, Rockford, Ill.).

| Molecule | hydroxyl radical production over control / reagent blank [1] | increase in glucose uptake by adipocytes (3T3-adipocytes) |
| --- | --- | --- |
| O=C([O-])CN(CCN(CC(=O)[O-])CC(=O)O)CC(=O)[O-].[Fe+3] [Ferric-EDTA, reference compound] | about 3.5 fold |  |
| insulin |  | fourfold |
